The structures appear in SMILES notation. Where “and” joins values, the source holds several entries; their conditions need not be identical. Identical values can stand only once. Like-named read-outs stand apart in the source and are kept apart here. Where only a bound is given, the exact number is not on record here.

These results are taken from PMC6611404 (Frontiers in Aging Neuroscience, 2019).

Experiment [1] deals with T1, Human 5-HT4R (Homo sapiens, UniProt Q13639).
T1 construct: purchased Eurofins HTS110M
The experiment is described as follows: [3H]-GR113808 competition binding on 5-HT4(b) membrane preparations. As to conditions: for inhibition / inhibition at 0.0002 µM: 0.2 nM [3H]-GR113808; for Ki: (h)5-HT4R Ki, n = 3, Ki ± SD. The protocol:
At the end of the incubation, homogenates were filtered through Whatman GF/C filters (Alpha Biotech) presoaked with 0.5% polyethylenimine using a Brandel cell harvester. Filters were subsequently washed three times with 1 mL of ice-cold 25 mM Tris buffer (pH 7.4, 4°C). Non-specific binding was evaluated in parallel in the presence of 30 μM serotonin.
(§1) For some of these compounds, affinity constants were calculated from five-point inhibition curves using the GraphPad Prism 6 software and expressed as Ki ± SD.

For experiment [2], the target named is T2, human 5-HT6 receptors (Homo sapiens, UniProt P50406).
T2 construct: purchased Perkin Elmer RBHS6M; host or cells: HEK-293 cells, transient expression (membranes)
The experiment is described as follows: [3H]-LSD competition binding on membranes of HEK-293 cells expressing human 5-HT6 receptors. The settings on record: for inhibition / inhibition at 0.0025 µM: 2.5 nM [3H]-LSD; for Ki: (h)5-HT6R Ki, n = 3, Ki ± SD. The procedure: Drugs were evaluated through their possibility to compete for the binding of [^3H]-LSD on membranes of HEK-293 cells transiently expressing the human 5-HT6 receptors (ref. RBHS6M, Perkin Elmer). […] At the end of the incubation, the homogenates were then filtered through Whatman GF/C filters and washed five times with ice-cold 25 mM Tris-HCl buffer. Non-specific binding was evaluated in the presence of 100 μM serotonin. Radioactivity associated to proteins was then quantified and expressed as the percentage of inhibition of the drugs under study.
as §1

Experiment [3] concerns the target T3, AChE from human erythrocytes (Homo sapiens, UniProt P22303).
T3 construct: AChE from human erythrocytes; purchased Sigma Aldrich; host or cells: human erythrocytes (natural source)
The experiment is described as follows: biochemical. As to conditions: for inhibition at 1 µM: read-out: (h)AChE % inhibition at 10^−6M. The procedure:
Acetylthiocholine iodide and 5,5-dithiobis-(2-nitrobenzoic) acid (DTNB) were purchased from Sigma Aldrich. AChE from human erythrocytes (buffered aqueous solution, ≥500 units/mg protein (BCA), Sigma Aldrich) was diluted in 20 mM HEPES buffer pH 8, 0.1% Triton X-100 such as to have enzyme solution with 0.25 unit/mL enzyme activity. In the procedure, 100 μL of 0.3 mM DTNB dissolved in phosphate buffer pH 7.4 was added into the 96-well plate followed by 50 μL of test compound solution and 50 μL of enzyme (0.05 U final). After 5 min of preincubation at 25°C, the reaction was then initiated by the injection of 50 μL of 10 mM acetylthiocholine iodide solution. […] Assays were performed with a blank containing all components except acetylthiocholine, in order to account for non-enzymatic reaction. The reaction slopes were compared and the percent inhibition due to the presence of test compounds was calculated by the following expression: 100 − (vi/v0 × 100) where vi is the rate calculated in the presence of inhibitor and v0 is the enzyme activity.

[4] abbreviates: read-out: (h)5-HT4R % inhibition at 10^−6M, 10^−6M.
Where [5] appears, read: read-out: (h)5-HT4R % inhibition at 10^−8M, 10^−8M.
Setting [6] is: read-out: (h)5-HT6R % inhibition at 10^−6M, 10^−6M.
Where [7] appears, read: read-out: (h)5-HT6R % inhibition at 10^−8M, 10^−8M.

T3 sequence (P22303 other isoform, or with tags, fused parts or gaps): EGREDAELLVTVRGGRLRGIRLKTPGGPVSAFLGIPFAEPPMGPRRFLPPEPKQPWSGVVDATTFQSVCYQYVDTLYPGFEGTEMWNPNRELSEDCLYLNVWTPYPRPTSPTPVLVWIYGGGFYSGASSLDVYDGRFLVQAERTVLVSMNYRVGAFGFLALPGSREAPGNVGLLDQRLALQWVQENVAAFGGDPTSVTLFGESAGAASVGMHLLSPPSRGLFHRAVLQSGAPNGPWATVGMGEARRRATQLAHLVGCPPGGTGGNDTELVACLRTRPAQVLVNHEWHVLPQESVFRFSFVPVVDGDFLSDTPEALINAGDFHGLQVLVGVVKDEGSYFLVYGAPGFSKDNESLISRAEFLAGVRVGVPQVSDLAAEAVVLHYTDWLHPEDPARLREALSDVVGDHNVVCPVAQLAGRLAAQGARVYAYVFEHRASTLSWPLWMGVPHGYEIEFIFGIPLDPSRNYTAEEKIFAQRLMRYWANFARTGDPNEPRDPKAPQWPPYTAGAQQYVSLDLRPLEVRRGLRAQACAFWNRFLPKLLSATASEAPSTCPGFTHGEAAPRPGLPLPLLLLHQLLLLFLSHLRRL
T1 sequence (Q13639 whole entry): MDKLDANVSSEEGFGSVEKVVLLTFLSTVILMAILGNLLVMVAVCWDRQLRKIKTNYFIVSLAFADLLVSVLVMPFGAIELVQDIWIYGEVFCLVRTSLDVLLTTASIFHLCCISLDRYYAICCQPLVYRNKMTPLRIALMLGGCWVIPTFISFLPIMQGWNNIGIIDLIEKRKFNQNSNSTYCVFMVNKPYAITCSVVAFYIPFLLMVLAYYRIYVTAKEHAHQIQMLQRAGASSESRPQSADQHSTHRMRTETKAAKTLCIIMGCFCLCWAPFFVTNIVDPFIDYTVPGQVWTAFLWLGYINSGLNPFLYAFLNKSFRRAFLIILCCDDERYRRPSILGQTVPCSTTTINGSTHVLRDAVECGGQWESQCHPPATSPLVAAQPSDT
T2 sequence (P50406 whole entry): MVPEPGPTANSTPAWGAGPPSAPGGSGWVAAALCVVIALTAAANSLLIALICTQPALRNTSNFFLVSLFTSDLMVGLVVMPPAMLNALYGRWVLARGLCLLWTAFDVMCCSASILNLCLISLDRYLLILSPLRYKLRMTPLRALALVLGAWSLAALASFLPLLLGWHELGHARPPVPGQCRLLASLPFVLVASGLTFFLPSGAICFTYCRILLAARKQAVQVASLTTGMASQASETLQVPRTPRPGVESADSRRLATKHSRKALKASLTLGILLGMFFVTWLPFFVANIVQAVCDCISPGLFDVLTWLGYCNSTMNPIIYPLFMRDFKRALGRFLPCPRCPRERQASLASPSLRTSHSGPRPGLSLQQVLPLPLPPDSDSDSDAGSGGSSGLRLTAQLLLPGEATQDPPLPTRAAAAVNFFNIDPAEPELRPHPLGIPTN

Broadly, the inhibition is the relative decrease from the control value, in per cent. Broadly, the IC50 is the concentration that inhibits the measured activity by half. Take `COc1cc(N)c(Cl)cc1C(=O)CCC1CCN(Cc2ccccc2O)CC1` [5h, 1-(4-Amino-5-chloro-2-methoxyphenyl)-3-(1-(2-hydroxybenzyl)piperidin-4-yl)propan-1-one]: the inhibition came to 98% in experiment [1] (setting [4]), 10% in experiment [1] (setting [5]), 24% in experiment [2] (setting [6]) and 0% in experiment [2] (setting [7]). Besides, the IC50 in experiment [3] (n = 2, read-out: (h)AChE IC50) came to 57.4 ± 9.4 nM. In addition, in experiment [3], the inhibition at 1 µM was 94%.
The Ki is a measure of affinity in units of concentration, obtained from inhibition or displacement. For `COc1cc(N)c(Cl)cc1C(=O)CCC1CCN(Cc2ccccc2I)CC1` [5e, 1-(4-Amino-5-chloro-2-methoxyphenyl)-3-(1-(2-iodobenzyl)piperidin-4-yl)propan-1-one], the inhibition amounted to 96% in experiment [1] (setting [4]), 1% in experiment [1] (setting [5]), 81% in experiment [2] (setting [6]) and 25% in experiment [2] (setting [7]). Besides, the “affinity for 5-HT6R (in words)” value in experiment [2] is reported as “displayed affinity for 5-HT6R”. This compound also displayed a Ki in experiment [2] of 186 ± 71 nM. Further, the “inhibitory effect towards AChE (in words)” value in experiment [3] is on record as “devoid of inhibitory effect towards AChE”. Besides, the inhibition at 1 µM in experiment [3] is 37%.
For the compound `COc1cc(N)c(Cl)cc1C(=O)CCC1CCN(Cc2ccccc2F)CC1` [5d, 1-(4-Amino-5-chloro-2-methoxyphenyl)-3-(1-(2-fluorobenzyl)piperidin-4-yl)propan-1-one], the inhibition came out at 94% in experiment [1] (setting [4]), 10% in experiment [1] (setting [5]), 68% in experiment [2] (setting [6]) and 21% in experiment [2] (setting [7]). In addition, the IC50 in experiment [3] (n = 2, read-out: (h)AChE IC50) came to 102 ± 65.4 nM. Moreover, the inhibition at 1 µM in experiment [3] came out at 96%.
As for `COc1cc(N)c(Cl)cc1C(=O)CCC1CCN(Cc2cccc(N)c2)CC1` [5m, 1-(4-Amino-5-chloro-2-methoxyphenyl)-3-(1-(3-aminobenzyl)piperidin-4-yl)propan-1-one], the Ki was 43 nM and 42.5 nM in experiment [1]; 1150 ± 559 nM in experiment [2]. Further, the inhibition in experiment [1] (setting [4]) stood at 100%; in experiment [2] (setting [7]), 31%. Also, the inhibition at 0.0002 µM in experiment [1] (setting [5]) is not below 25%. Further, in experiment [2] (setting [6]), the inhibition at 0.0025 µM was more than 70%. The half-maximal inhibitory concentration (IC50) in experiment [3] (n = 2, read-out: (h)AChE IC50) amounted to 41 ± 5 nM. Besides, in experiment [3], the inhibition at 1 µM was 93%.
For `COc1cc(N)c(Cl)cc1C(=O)CCC1CCN(Cc2cccc(C)c2)CC1` [5k, 1-(4-Amino-5-chloro-2-methoxyphenyl)-3-(1-(3-methylbenzyl)piperidin-4-yl)propan-1-one], the Ki in experiment [1] came to 168 ± 15 nM; in experiment [2], 230 ± 49 nM. Further, the results for the inhibition in experiment [1] (setting [4]) and in experiment [2] (setting [7]) were 98% and 9%, respectively. In addition, in experiment [1] (setting [5]), the inhibition at 0.0002 µM is not below 25%. The inhibition at 0.0025 µM in experiment [2] (setting [6]) was more than 70%. Inhibition in experiment [3] ((h)AChE IC50, n = 2) was half-maximal at 161 ± 43 nM (IC50). Also, in experiment [3], the inhibition at 1 µM is 89%.
Consider `COc1cccc(CN2CCC(CCC(=O)c3cc(Cl)c(N)cc3OC)CC2)c1` [5l, 1-(4-Amino-5-chloro-2-methoxyphenyl)-3-(1-(3-methoxybenzyl)piperidin-4-yl)propan-1-one], for which the inhibition in experiment [1] (setting [4]) is 94%; in experiment [1] (setting [5]), 9%; in experiment [2] (setting [6]), 78%; in experiment [2] (setting [7]), 6%. Further, in experiment [2], the “affinity for 5-HT6R (in words)” value is “displayed affinity for 5-HT6R”. The Ki in experiment [2] was found to be 265 ± 64 nM. For the same compound, in experiment [3], the “inhibitory effect towards AChE (in words)” value is reported as “devoid of inhibitory effect towards AChE”. The inhibition at 1 µM in experiment [3] stood at 35%.
For `COc1cc(N)c(Cl)cc1C(=O)CCC1CCN(Cc2cc(NC(C)=O)ccc2Br)CC1` [5r, N-(3-((4-(3-(4-Amino-5-chloro-2-methoxyphenyl)-3-oxopropyl)piperidin-1-yl)methyl)-4-bromophenyl) acetamide], the inhibition in experiment [1] (setting [4]) worked out at 96%; in experiment [1] (setting [5]), 6%; in experiment [2] (setting [6]) it was 35%; in experiment [2] (setting [7]), 7%. Also, the inhibition at 1 µM in experiment [3] is 13%.
As to `COc1cc(N)c(Cl)cc1C(=O)CCC1CCN(Cc2ccccc2Cl)CC1` [5b, 1-(4-Amino-5-chloro-2-methoxyphenyl)-3-(1-(2-chlorobenzyl)piperidin-4-yl)propan-1-one], the figures for the inhibition in experiment [1] (setting [4]), in experiment [1] (setting [5]) and in experiment [2] (setting [7]) were 94%, 16% and 27%, respectively. For the same compound, affinity in experiment [2] was put at a Ki of 110 ± 19 nM. Also, the IC50 in experiment [3] (n = 2, read-out: (h)AChE IC50) was 156 ± 71 nM. The inhibition at 1 µM in experiment [3] was 91%.
Regarding `COc1cc(N)c(Cl)cc1C(=O)CCC1CCN(Cc2ccccc2)CC1` [5a], the inhibition in experiment [1] (setting [4]) amounted to 102%; in experiment [1] (setting [5]), 41%; in experiment [2] (setting [6]), 29%; in experiment [2] (setting [7]), 0%. Further, the “affinity for 5-HT6R (in words)” value in experiment [2] is reported as “devoid of such an activity”. For the same compound, the inhibition at 1 µM in experiment [3] was 98%.
For the compound `COc1cc(N)c(Cl)cc1C(=O)CCC1CCN(Cc2ccc(O)cc2)CC1` [5p, 1-(4-Amino-5-chloro-2-methoxyphenyl)-3-(1-(4-hydroxybenzyl)piperidin-4-yl)propan-1-one], the inhibition came out at 100% in experiment [1] (setting [4]), 23% in experiment [1] (setting [5]), 24% in experiment [2] (setting [6]) and 0% in experiment [2] (setting [7]). Further, the IC50 in experiment [3] (n = 2, read-out: (h)AChE IC50) is 6 ± 0.4 nM. In experiment [3], the inhibition at 1 µM came to 98%.
In the case of `COc1cc(N)c(Cl)cc1C(=O)CCC1CCN(Cc2cccc(F)c2)CC1` [5j, 1-(4-Amino-5-chloro-2-methoxyphenyl)-3-(1-(3-fluorobenzyl)piperidin-4-yl)propan-1-one], the inhibition in experiment [1] (setting [4]) came out at 98%; in experiment [1] (setting [5]), 12%; in experiment [2] (setting [6]) it was 59%; in experiment [2] (setting [7]), 9%. The IC50 in experiment [3] (n = 2, read-out: (h)AChE IC50) was determined as 91 ± 53.8 nM. In addition, the inhibition at 1 µM in experiment [3] is 97%.
For the compound `COc1cc(N)c(Cl)cc1C(=O)CCC1CCN(Cc2cccc([N+](=O)[O-])c2)CC1` [5n, 1-(4-Amino-5-chloro-2-methoxyphenyl)-3-(1-(3-nitrobenzyl)piperidin-4-yl)propan-1-one], the inhibition is 90% in experiment [1] (setting [4]), 3% in experiment [1] (setting [5]), 51% in experiment [2] (setting [6]) and 0% in experiment [2] (setting [7]). Moreover, the inhibition at 1 µM in experiment [3] was 64%.
Take `COc1cc(N)c(Cl)cc1C(=O)CCC1CCN(Cc2ccccc2Br)CC1` [5c, 1-(4-Amino-5-chloro-2-methoxyphenyl)-3-(1-(2-bromobenzyl)piperidin-4-yl)propan-1-one]: the inhibition is 96% in experiment [1] (setting [4]), 17% in experiment [1] (setting [5]), 65% in experiment [2] (setting [6]) and 34% in experiment [2] (setting [7]). For the same compound, the IC50 in experiment [3] (n = 2, read-out: (h)AChE IC50) worked out at 317 ± 115 nM. Further, in experiment [3], the inhibition at 1 µM was 80%.
As to `COc1cc(N)c(Cl)cc1C(=O)CCC1CCN(Cc2cc(N)ccc2F)CC1` [5t, 1-(4-Amino-5-chloro-2-methoxyphenyl)-3-(1-(5-amino-2-fluorobenzyl)piperidin-4-yl)propan-1-one], the inhibition in experiment [1] (setting [4]) turned out to be 98%; in experiment [1] (setting [5]), 18%; in experiment [2] (setting [6]), 65%; in experiment [2] (setting [7]) it was 3%. Moreover, the IC50 in experiment [3] (n = 2, read-out: (h)AChE IC50) is 153 ± 19.9 nM. The inhibition at 1 µM in experiment [3] is 79%.
With `COc1cc(N)c(Cl)cc1C(=O)CCC1CCN(Cc2ccccc2C)CC1` [5f, 1-(4-Amino-5-chloro-2-methoxyphenyl)-3-(1-(2-methylbenzyl)piperidin-4-yl)propan-1-one], the inhibition in experiment [1] (setting [4]) worked out at 98%; in experiment [1] (setting [5]), 9%; in experiment [2] (setting [7]), 24%. For the same compound, in experiment [2], the Ki is 270 ± 14 nM. For the same compound, in experiment [2] (setting [6]), the inhibition at 0.0025 µM was more than 70%. In addition, the IC50 in experiment [3] (n = 2, read-out: (h)AChE IC50) worked out at 225 ± 57.3 nM. In addition, the inhibition at 1 µM in experiment [3] worked out at 87%.
